{"source": "patent US9662390B2", "about": "“Use of opioid antagonists to attenuate endothelial cell proliferation and migration” (THE UNIVERSITY OF CHICAGO, priority 2005, dated 2017)", "key": {"[1]": {"system": "human pulmonary microvascular endothelial cells (HPMVEC)", "assay": "Human pulmonary microvascular EC migration assay (Transwell)", "assay_type": "cell-based", "details": "for agonist-induced HPMVEC migration: agonist 100 nM, 18 hours"}, "[2]": {"system": "human pulmonary microvascular endothelial cells (HPMVEC)", "assay": "Human pulmonary microvascular EC proliferation assay (CellTiter96 MTS)", "assay_type": "cell-based", "details": "for agonist-induced HPMVEC proliferation: agonist 100 nM, 24 h, serum-free media"}, "VEGF receptor 1 (Flt-1)": {"system": "VEGF receptor 1 (Flt-1)", "assay": "Tyrosine phosphorylation of VEGF receptor 1, immunoprecipitation and immunoblot", "assay_type": "cell-based, human", "details": "HPMVEC"}, "VEGF receptor 2 (Flk-1)": {"system": "VEGF receptor 2 (Flk-1)", "assay": "Tyrosine phosphorylation of VEGF receptor 2, immunoprecipitation and immunoblot", "assay_type": "cell-based, human", "details": "HPMVEC"}, "RhoA": {"system": "RhoA", "assay": "RhoA activation assay (RBD beads, anti-RhoA immunoblot)", "assay_type": "cell-based, human", "details": "for agonist-stimulated RhoA activation: endothelial cells", "excerpt": "The supernatant is removed and the RBD-beads with the GTP-bound form of RhoA bound are washed extensively."}, "VEGF receptor": {"system": "VEGF receptor", "assay": "Tyrosine phosphorylation of the VEGF receptor in EC (Example 9)", "assay_type": "cell-based, human"}, "PDGF receptor": {"system": "PDGF receptor", "assay": "Tyrosine phosphorylation of the PDGF receptor in EC (Example 9)", "assay_type": "cell-based, human"}, "S1P3 receptor": {"system": "S1P3 receptor", "assay": "Tyrosine phosphorylation of the S1P3 receptor in EC (Example 9)", "assay_type": "cell-based, human"}, "mu opioid receptor": {"target": "mu opioid receptor (Homo sapiens, UniProt P35372)", "sequence (P35372 whole entry)": "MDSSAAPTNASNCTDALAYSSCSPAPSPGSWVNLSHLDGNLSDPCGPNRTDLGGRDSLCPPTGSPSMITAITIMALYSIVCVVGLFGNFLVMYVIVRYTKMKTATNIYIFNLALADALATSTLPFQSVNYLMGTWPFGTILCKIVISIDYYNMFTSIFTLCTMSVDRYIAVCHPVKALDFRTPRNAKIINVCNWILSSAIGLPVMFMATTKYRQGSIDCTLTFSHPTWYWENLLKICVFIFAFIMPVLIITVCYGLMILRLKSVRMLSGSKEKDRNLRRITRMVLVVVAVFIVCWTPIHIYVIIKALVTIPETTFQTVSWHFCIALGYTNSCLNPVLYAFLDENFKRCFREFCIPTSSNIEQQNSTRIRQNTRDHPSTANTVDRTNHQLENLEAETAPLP", "assay": "Serine/threonine phosphorylation of the mu opioid receptor in EC (Example 9)", "assay_type": "cell-based"}, "tumors": {"system": "tumors", "assay": "Tumor-bearing mice: tumor growth and angiogenesis", "assay_type": "in vivo", "details": "eight weeks; for angiogenesis and tumor growth, combination of opioid, opioid antagonist and anticancer agent compared to the other groups: antagonist 5 mg/kg/day, morphine 0.5 mg/kg/day, bevacizumab (Avastin) 5 mg/kg every 14 days; for tumor growth and angiogenesis compared to controls or opioid alone: antagonist orally 5 mg/kg/day with morphine orally 0.5 mg/kg/day"}, "tumor": {"system": "tumor", "assay": "Human cancer patients: tumor growth and angiogenesis", "assay_type": "in vivo", "details": "antagonist orally 5 mg/kg/day, eight weeks, with opioid and bevacizumab (Avastin)"}, "[3]": {"details": "in vivo; cited from earlier work"}, "[4]": {"details": "white crystalline powder, typically the bromide salt; cited from earlier work"}, "F11 c-1": {"system": "F11 c-1", "details": "T241 fibrosarcoma; no increase in morphine treated KO mice; cited from earlier work"}, "[5]": {"details": "sickle cell disease; cited from earlier work"}, "[6]": {"system": "morphine induced angiogenesis", "details": "xenograft tumor model in mice; cited from earlier work"}, "[7]": {"details": "MNTX 100 nM (0.1 μM, 1 hour pretreatment), induced by MS/morphine, DAMGO, VEGF, in Example 9 also S1P and PDGF"}}, "note": "Entries after “also recorded” stand apart in the source; their conditions may differ."}
{"compound": "C[C@@H](NC(=O)[C@@H](N)Cc1ccc(O)cc1)C(=O)NCC(=O)N(C)[C@@H](Cc1ccccc1)C(=O)NCCO", "note": "[DAMGO, [D-Ala^2, N-MePhe^4, Gly^5-ol] enkephalin]", "values": [{"measurement": "agonist-induced HPMVEC migration", "setting": "[1]", "value": "induce HPMVEC migration; also recorded: induced"}, {"measurement": "agonist-induced HPMVEC proliferation", "setting": "[2]", "value": "stimulate HPMVEC proliferation; also recorded: induced proliferation"}, {"measurement": "agonist-induced tyrosine phosphorylation of VEGF receptor 1 (Flt-1)", "setting": "VEGF receptor 1 (Flt-1)", "value": "induce tyrosine phosphorylation"}, {"measurement": "agonist-induced tyrosine phosphorylation of VEGF receptor 2 (Flk-1)", "setting": "VEGF receptor 2 (Flk-1)", "value": "induce tyrosine phosphorylation"}, {"measurement": "agonist-stimulated RhoA activation", "setting": "RhoA", "value": "stimulate RhoA activation"}, {"measurement": "agonist-induced tyrosine phosphorylation of the VEGF receptor", "setting": "VEGF receptor", "value": "induced tyrosine phosphorylation"}, {"measurement": "agonist-induced tyrosine phosphorylation of the PDGF receptor", "setting": "PDGF receptor", "value": "induced tyrosine phosphorylation"}, {"measurement": "agonist-induced tyrosine phosphorylation of the S1P3 receptor", "setting": "S1P3 receptor", "value": "induced tyrosine phosphorylation"}]}
{"compound": "C[N+]1(CC2CC2)CCC23c4c5ccc(O)c4OC2C(=O)CCC3(O)C1C5", "note": "(stereo not shown) [MNTX, N-methylnaltrexone]", "values": [{"measurement": "inhibition of agonist-induced HPMVEC migration", "setting": "[1]; [7]", "value": "inhibited"}, {"measurement": "inhibition of agonist-induced HPMVEC proliferation", "setting": "[2]; [7]", "value": "attenuated; also recorded: inhibited"}, {"measurement": "effect on MS and DAMGO induced tyrosine phosphorylation of VEGF receptor 1", "setting": "VEGF receptor 1 (Flt-1)", "value": "blocked"}, {"measurement": "effect on VEGF induced tyrosine phosphorylation of VEGF receptor 1", "setting": "VEGF receptor 1 (Flt-1)", "value": "attenuates"}, {"measurement": "effect on MS and DAMGO induced tyrosine phosphorylation of VEGF receptor 2", "setting": "VEGF receptor 2 (Flk-1)", "value": "blocked"}, {"measurement": "effect on VEGF induced tyrosine phosphorylation of VEGF receptor 2", "setting": "VEGF receptor 2 (Flk-1)", "value": "attenuates"}, {"measurement": "effect on agonist-stimulated RhoA activation", "setting": "RhoA; induced by morphine/MS, DAMGO, VEGF, in Example 9 also S1P and PDGF", "value": "inhibited; also recorded: attenuated"}, {"measurement": "effect of MNTX pretreatment on agonist-induced VEGF receptor phosphorylation", "setting": "VEGF receptor", "value": "attenuated"}, {"measurement": "effect of MNTX pretreatment on agonist-induced PDGF receptor phosphorylation", "setting": "PDGF receptor", "value": "attenuated"}, {"measurement": "effect of MNTX pretreatment on agonist-induced S1P3 receptor phosphorylation", "setting": "S1P3 receptor", "value": "attenuated"}, {"measurement": "effect of MNTX pretreatment on agonist-induced mu opioid receptor phosphorylation", "setting": "mu opioid receptor", "value": "attenuated"}, {"measurement": "angiogenesis and tumor growth, combination of opioid, opioid antagonist and anticancer agent compared to the other groups", "setting": "tumors", "value": "enhanced result"}, {"measurement": "tumor growth and angiogenesis compared to controls or opioid alone", "setting": "tumors", "value": "reduction in tumor growth and angiogenesis"}, {"measurement": "angiogenesis and tumor growth, combination of opioid, opioid antagonist and anticancer agent compared to the other groups", "setting": "tumor", "value": "enhanced result"}, {"measurement": "tolerability of doses that maintain plasma MNTX between about 25 and 150 ng/mL", "setting": "[3]", "value": "well tolerated"}, {"measurement": "solubility in water", "setting": "[4]", "value": "freely soluble in water"}]}
{"compound": "CCCCCCCCCCCCC/C=C/[C@@H](O)[C@@H](N)COP(=O)(O)O", "note": "[SIP, sphingosine 1-phosphate]", "values": [{"measurement": "agonist-induced HPMVEC migration", "setting": "[1]", "value": "induced"}, {"measurement": "agonist-induced HPMVEC proliferation", "setting": "[2]", "value": "induced proliferation"}, {"measurement": "agonist-stimulated RhoA activation", "setting": "RhoA", "value": "activation of the cytoskeletal regulatory small G-protein, RhoA"}, {"measurement": "agonist-induced serine/threonine phosphorylation of the mu opioid receptor", "setting": "mu opioid receptor", "value": "induced serine/threonine phosphorylation"}]}
{"compound": "C[C@H]1CN(C[C@H](Cc2ccccc2)C(=O)NCC(=O)O)CC[C@@]1(C)c1cccc(O)c1", "note": "[alvimopan]", "values": [{"measurement": "angiogenesis and tumor growth, combination of opioid, opioid antagonist and anticancer agent compared to the other groups", "setting": "tumors", "value": "enhanced result"}, {"measurement": "tumor growth and angiogenesis compared to controls or opioid alone", "setting": "tumors", "value": "reduction in tumor growth and angiogenesis"}, {"measurement": "angiogenesis and tumor growth, combination of opioid, opioid antagonist and anticancer agent compared to the other groups", "setting": "tumor", "value": "enhanced result"}]}
{"compound": "CN1CC[C@]23c4c5ccc(O)c4O[C@H]2[C@@H](O)C=C[C@H]3[C@H]1C5", "note": "[morphine]", "values": [{"measurement": "agonist-induced HPMVEC migration", "setting": "[1]", "value": "induced"}, {"measurement": "agonist-induced HPMVEC migration", "setting": "[1]; listed as MS", "value": "induce HPMVEC migration"}, {"measurement": "agonist-induced HPMVEC proliferation", "setting": "[2]", "value": "induced proliferation"}, {"measurement": "agonist-induced HPMVEC proliferation", "setting": "[2]; listed as MS", "value": "stimulate HPMVEC proliferation"}, {"measurement": "agonist-induced tyrosine phosphorylation of VEGF receptor 1 (Flt-1)", "setting": "VEGF receptor 1 (Flt-1)", "value": "induce tyrosine phosphorylation"}, {"measurement": "agonist-induced tyrosine phosphorylation of VEGF receptor 2 (Flk-1)", "setting": "VEGF receptor 2 (Flk-1)", "value": "induce tyrosine phosphorylation"}, {"measurement": "agonist-stimulated RhoA activation", "setting": "RhoA", "value": "stimulate RhoA activation"}, {"measurement": "agonist-stimulated RhoA activation", "setting": "RhoA; listed as MS", "value": "stimulate RhoA activation"}, {"measurement": "agonist-induced tyrosine phosphorylation of the VEGF receptor", "setting": "VEGF receptor", "value": "induced tyrosine phosphorylation"}, {"measurement": "agonist-induced tyrosine phosphorylation of the PDGF receptor", "setting": "PDGF receptor", "value": "induced tyrosine phosphorylation"}, {"measurement": "agonist-induced tyrosine phosphorylation of the S1P3 receptor", "setting": "S1P3 receptor", "value": "induced tyrosine phosphorylation"}, {"measurement": "increase in F11 c-1 expression in morphine treated mice versus controls", "setting": "F11 c-1", "value": 10, "unit": "fold"}, {"measurement": "proliferative retinopathy", "setting": "[5]", "value": "induced proliferative retinopathy"}]}
{"compound": "C=CCN1CC[C@]23c4c5ccc(O)c4O[C@H]2C(=O)CC[C@@]3(O)[C@H]1C5", "note": "[naloxone]", "values": [{"measurement": "effect on morphine induced angiogenesis", "setting": "[6]", "value": "did not exhibit a significant effect"}]}
{"compound": "platelet-derived growth factor [PDGF]", "values": [{"measurement": "agonist-induced HPMVEC migration", "setting": "[1]", "value": "induced"}, {"measurement": "agonist-induced HPMVEC proliferation", "setting": "[2]", "value": "induced proliferation"}, {"measurement": "agonist-stimulated RhoA activation", "setting": "RhoA", "value": "activation of the cytoskeletal regulatory small G-protein, RhoA"}, {"measurement": "agonist-induced serine/threonine phosphorylation of the mu opioid receptor", "setting": "mu opioid receptor", "value": "induced serine/threonine phosphorylation"}]}
{"compound": "vascular endothelial growth factor [VEGF]", "values": [{"measurement": "agonist-induced HPMVEC migration", "setting": "[1]", "value": "induce HPMVEC migration; also recorded: induced"}, {"measurement": "agonist-induced HPMVEC proliferation", "setting": "[2]", "value": "stimulate HPMVEC proliferation; also recorded: induced proliferation"}, {"measurement": "agonist-induced tyrosine phosphorylation of VEGF receptor 1 (Flt-1)", "setting": "VEGF receptor 1 (Flt-1)", "value": "induced"}, {"measurement": "agonist-induced tyrosine phosphorylation of VEGF receptor 2 (Flk-1)", "setting": "VEGF receptor 2 (Flk-1)", "value": "induced"}, {"measurement": "agonist-stimulated RhoA activation", "setting": "RhoA", "value": "stimulate RhoA activation; also recorded: activation of the cytoskeletal regulatory small G-protein, RhoA"}, {"measurement": "agonist-induced serine/threonine phosphorylation of the mu opioid receptor", "setting": "mu opioid receptor", "value": "induced serine/threonine phosphorylation"}]}
